Source: ChEMBL document CHEMBL1687764, “Contribution of BlaA and BlaB beta-lactamases to antibiotic susceptibility of Yersinia enterocolitica biovar 1B” (2010)
In brackets after ≈: the same amount, converted by molar mass.

Key:
Format in all cases: functional
Yersinia enterocolitica [1] = test: Antimicrobial activity against beta-lactamase B-deficient Yersinia enterocolitica GY5542 after 20 hrs by Etest; settings: GY5542, 20 h
Yersinia enterocolitica [2] = test: Antimicrobial activity against beta-lactamase A and B-deficient Yersinia enterocolitica GY5718 after 20 hrs by Etest; settings: GY5718, 20 h
Yersinia enterocolitica [3] = test: Antimicrobial activity against beta-lactamase A-deficient Yersinia enterocolitica GY5717 after 20 hrs by Etest; settings: GY5717, 20 h
Yersinia enterocolitica [4] = test: Antimicrobial activity against Yersinia enterocolitica Biovar 1B 8081 after 20 hrs by Etest; settings: Biovar 1B 8081, 20 h

Structure (SMILES) | MIC (Yersinia enterocolitica [1]) [µg/mL] | MIC (Yersinia enterocolitica [2]) [µg/mL] | MIC (Yersinia enterocolitica [3]) [µg/mL] | MIC (Yersinia enterocolitica [4]) [µg/mL]
CC1(C)S[C@@H]2[C@H](NC(=O)Cc3ccccc3)C(=O)N2[C@H]1C(=O)O [PENICILLIN G] | 24 (≈ 71.8 µM) | 1 (≈ 2.99 µM) | 4 (≈ 12 µM) | 24 (≈ 71.8 µM)
C[C@@H](O)[C@H]1C(=O)N2C(C(=O)O)=C(SCCNC=N)C[C@H]12 [IMIPENEM ANHYDROUS] | 0.25 (≈ 0.835 µM) | 0.25 (≈ 0.835 µM) | 0.25 (≈ 0.835 µM) | 0.25 (≈ 0.835 µM)
CO/N=C(\C(=O)N[C@@H]1C(=O)N2C(C(=O)O)=C(COC(C)=O)CS[C@H]12)c1csc(N)n1 [CEFOTAXIME] | 0.016 (≈ 0.0351 µM) | 0.012 (≈ 0.0263 µM) | 0.023 (≈ 0.0505 µM) | 0.023 (≈ 0.0505 µM)
CO/N=C(\C(=O)N[C@@H]1C(=O)N2C(C(=O)O)=C(COC(N)=O)CS[C@H]12)c1ccco1 [CEFUROXIME] | 0.75 (≈ 1.77 µM) | 0.5 (≈ 1.18 µM) | 0.5 (≈ 1.18 µM) | 0.75 (≈ 1.77 µM)
CC1(C)S[C@@H]2[C@H](NC(=O)[C@H](N)c3ccccc3)C(=O)N2[C@H]1C(=O)O [AMPICILLIN] | 4 (≈ 11.4 µM) | 0.19 (≈ 0.544 µM) | 0.5 (≈ 1.43 µM) | 4 (≈ 11.4 µM)
CO/N=C(\C(=O)N[C@@H]1C(=O)N2C(C(=O)O)=C(CSc3nc(=O)c(O)nn3C)CS[C@H]12)c1csc(N)n1 [CEFTRIAXONE] | 0.016 (≈ 0.0289 µM) | 0.012 (≈ 0.0216 µM) | 0.016 (≈ 0.0289 µM) | 0.023 (≈ 0.0415 µM)
CCN1CCN(C(=O)N[C@@H](C(=O)N[C@@H]2C(=O)N3[C@@H]2SC(C)(C)[C@@H]3C(=O)O)c2ccccc2)C(=O)C1=O [PIPERACILLIN] | 0.75 (≈ 1.45 µM) | 0.094 (≈ 0.182 µM) | 0.19 (≈ 0.367 µM) | 0.75 (≈ 1.45 µM)
CC1(C)S[C@@H]2[C@H](NC(=O)[C@H](N)c3ccc(O)cc3)C(=O)N2[C@H]1C(=O)O [AMOXICILLIN] | 24 (≈ 65.7 µM) | 0.38 (≈ 1.04 µM) | 1.5 (≈ 4.1 µM) | 24 (≈ 65.7 µM)
